One assay addresses T1, RIPK2 (KD)/XIAP (BIR2) (Homo sapiens, UniProt O43353).
T1 construct: made in house; host or cells: baculovirus-infected Sf9 cells
The assay can be described thus: RIPK2-XIAP binding competition PPI assay (TR-FRET). The following applies: for Emax: 50 nM of GSK583 = -100% activity, read-out: PPI Amax; for IC50: GST-RIPK2 / His-XIAP (BIR2)-avi, 120 min at 23° C. Put shortly: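 TR-FRET competition between GST-RIPK2 (aa 1-310, 1 nM) and His-XIAP BIR2-avi (aa 152-231, 25 nM), both Sf9-expressed, detected with anti-His-XL665 and anti-GST-Tb in Tris pH 7.5 buffer with MgCl2, DTT and vanadate. Incubation was 120 min at 23 °C; the 665/520 nm ratio was normalized to no inhibitor (0%) and 50 nM GSK583 (−100%).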
Background: TR-FRET usually uses a lanthanide donor and a delayed reading to cut background.

The subject of assay [1] is THP1-Dual cells, NF-κB pathway (SEAP). Briefly: THP-1 Dual cell SEAP assay (L18-MDP stimulated). In kind it is cell-based. The following applies: Homo sapiens, 10 ng/mL L18-MDP, 20-24 h, SEAP readout, read-out: IFNγ THP1 IC50. Put shortly: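 About 25,000 THP1-Dual cells per well were preincubated 30 min with serially diluted compound, then stimulated overnight (20-24 h, 37 °C) with 10 ng/mL L18-MDP (final). NF-κB-driven SEAP in supernatant was read with QUANTI-Blue at OD 620-655 nm after 2 h; % inhibition versus DMSO/L18-MDP wells was fitted by non-linear regression to give IC50.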

T1 sequence (O43353 1-310): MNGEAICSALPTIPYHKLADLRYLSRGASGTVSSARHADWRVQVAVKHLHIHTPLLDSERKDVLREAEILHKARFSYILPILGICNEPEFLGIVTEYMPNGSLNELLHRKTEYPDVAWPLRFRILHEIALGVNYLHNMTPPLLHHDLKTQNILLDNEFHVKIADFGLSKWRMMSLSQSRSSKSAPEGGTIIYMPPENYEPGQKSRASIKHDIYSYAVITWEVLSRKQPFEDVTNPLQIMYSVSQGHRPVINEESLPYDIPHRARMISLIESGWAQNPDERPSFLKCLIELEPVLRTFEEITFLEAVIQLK

Take `COc1cn2ncc(-c3cc(C(=O)N[C@H](C)c4ncccc4F)n(C)n3)c2cc1S(=O)(=O)C(C)(C)C` [Example 114, (R)-3-(5-(tert-butylsulfonyl)-6-methoxypyrazolo[1,5-a]pyridin-3-yl)-N-(1-(3-fluoropyridin-2-yl)ethyl)-1-methyl-1H-pyrazole-5-carboxamide]: the Emax at RIPK2 (KD)/XIAP (BIR2) was not below 80%. For the same compound, the IC50 was 10 to 100 nM at RIPK2 (KD)/XIAP (BIR2) and 100 to 500 nM in assay [1].

Consider `C[C@@H](NC(=O)c1cc(-c2cnn3cc(OCCO)c(S(=O)(=O)C(C)(C)C)cc23)nn1C)c1ccccn1` [Example 115, (R)-3-(5-(tert-butylsulfonyl)-6-(2-hydroxyethoxy)pyrazolo[1,5-a]pyridin-3-yl)-1-methyl-N-(1-(pyridin-2-yl)ethyl)-1H-pyrazole-5-carboxamide], for which, on RIPK2 (KD)/XIAP (BIR2), the Emax was not below 80% and the IC50 lay within 10 to 100 nM. In addition, the IC50 in assay [1] lay within 500 to 2500 nM.

For the compound `C[C@@H](NC(=O)c1cc(-c2cnn3cc(OCCO)c(S(=O)(=O)C(C)(C)C)cc23)nn1C)c1ncccc1F` [Example 116, (R)-3-(5-(tert-butylsulfonyl)-6-(2-hydroxyethoxy)pyrazolo[1,5-a]pyridin-3-yl)-N-(1-(3-fluoropyridin-2-yl)ethyl)-1-methyl-1H-pyrazole-5-carboxamide], on RIPK2 (KD)/XIAP (BIR2), the Emax is not below 80% and the IC50 was 10 to 100 nM. Besides, the IC50 in assay [1] lay in the range of 100 to 500 nM.

On to `CCn1nc(-c2cnn3cc(OCCO)c(S(=O)(=O)C(C)(C)C)cc23)cc1C(=O)N[C@H](C)c1ncccn1` [Example 117, (R)-3-(5-(tert-butylsulfonyl)-6-(2-hydroxyethoxy)pyrazolo[1,5-a]pyridin-3-yl)-1-ethyl-N-(1-(pyrimidin-2-yl)ethyl)-1H-pyrazole-5-carboxamide], for which, at RIPK2 (KD)/XIAP (BIR2), the Emax was not below 80% and the IC50 is 10 to 100 nM. The IC50 in assay [1] is less than 100 nM.

In the case of `CCn1nc(-c2cnc3cc(OCCO)c(S(=O)(=O)C(C)(C)C)cn23)cc1C(=O)N[C@H](C)c1ncccc1F` [Example 118, (R)-3-(6-(tert-butylsulfonyl)-7-(2-hydroxyethoxy)imidazo[1,2-a]pyridin-3-yl)-1-ethyl-N-(1-(3-fluoropyridin-2-yl)ethyl)-1H-pyrazole-5-carboxamide], at RIPK2 (KD)/XIAP (BIR2), the Emax is not below 80% and the IC50 is less than 10 nM. Further, in assay [1], the IC50 is less than 100 nM.

For the compound `CCn1nc(-c2cnc3cc(OCCO)c(S(=O)(=O)C(C)(C)C)cn23)cc1C(=O)N[C@H](C)c1ncccn1` [Example 119, (R)-3-(6-(tert-butylsulfonyl)-7-(2-hydroxyethoxy)imidazo[1,2-a]pyridin-3-yl)-1-ethyl-N-(1-(pyrimidin-2-yl)ethyl)-1H-pyrazole-5-carboxamide], at RIPK2 (KD)/XIAP (BIR2), the Emax is not below 80% and the IC50 was less than 10 nM. Also, in assay [1], the IC50 was less than 100 nM.

With `CCn1nc(-c2cnc3cc(OCCO)c(S(=O)(=O)C(C)(C)C)cn23)cc1C(=O)N[C@H](C)c1nccs1` [Example 120, (R)-3-(6-(tert-butylsulfonyl)-7-(2-hydroxyethoxy)imidazo[1,2-a]pyridin-3-yl)-1-ethyl-N-(1-(thiazol-2-yl)ethyl)-1H-pyrazole-5-carboxamide], at RIPK2 (KD)/XIAP (BIR2), the Emax is not below 80% and the 50% inhibitory concentration (IC50) was less than 10 nM. The IC50 in assay [1] is less than 100 nM.

For `CCn1nc(-c2cnc3cc(OCCO)c(S(=O)(=O)C(C)(C)C)cn23)cc1C(=O)N[C@H](C)c1ccccn1` [Example 121, (R)-3-(6-(tert-butylsulfonyl)-7-(2-hydroxyethoxy)imidazo[1,2-a]pyridin-3-yl)-1-ethyl-N-(1-(pyridin-2-yl)ethyl)-1H-pyrazole-5-carboxamide], the Emax on RIPK2 (KD)/XIAP (BIR2) was not below 80%. Also, the IC50 on RIPK2 (KD)/XIAP (BIR2) is less than 10 nM; in assay [1] it was less than 100 nM.

Turning to `CCn1nc(-c2cnc3cc(OCCO)c(S(=O)(=O)C(C)(C)C)cn23)cc1C(=O)N[C@H](C)c1ccn(C)n1` [Example 122, (R)-3-(6-(tert-butylsulfonyl)-7-(2-hydroxyethoxy)imidazo[1,2-a]pyridin-3-yl)-1-ethyl-N-(1-(1-methyl-1H-pyrazol-3-yl)ethyl)-1H-pyrazole-5-carboxamide], the Emax at RIPK2 (KD)/XIAP (BIR2) is not below 80%. Further, the figures for the IC50 (on RIPK2 (KD)/XIAP (BIR2); in assay [1]) were 10 to 100 nM and less than 100 nM, respectively.

By IC50 is commonly meant the concentration that inhibits the measured activity by half.

For the origin of these results see patent US20260091026A1, “METHODS OF TREATING INFLAMMATORY DISEASES” (INTERLINE THERAPEUTICS, INC., priority 2023, published 2026).
